Values quoted from earlier work, collected in US6439069B1, “Method and apparatus for detecting subterranean termites” (priority 1999, dated 2002).

How the values were obtained:
foraging termites = conditions: food sources impregnated with 0.5% of the substance
subterranean termites = conditions: for 20-30 years or more

Structure (SMILES)	palatability of impregnated food source (foraging termites)	control of subterranean termites (subterranean termites)
O.O.O.O.O=BOB1OB(OB=O)OB2OB([O-])OB([O-])OB(O1)O2.[Na+].[Na+] [disodium octaborate tetrahydrate]	acceptably palatable	
ClC1=C(Cl)C2(Cl)C3C(Cl)C(Cl)CC3C1(Cl)C2(Cl)Cl (stereo not drawn) [chlordane]		100%
ClC1=C(Cl)C2(Cl)C3C(Cl)C=CC3C1(Cl)C2(Cl)Cl (stereo not drawn) [heptachlor]		100%
